5 compounds from ChEMBL document CHEMBL4043156, “Functionalization of peptide nucleolipid bioconjugates and their structure anti-cancer activity relationship studies” (Bioorg Med Chem Lett, 2017) can be followed below.

SMILES strings stand for the structures. Active and inactive are the calls of the source. The rule behind the calls is not given here.

Experiment [1] relates to MM1.S. Briefly: Induction of apoptosis in human MM1S cells at 2.5 uM after 24 hrs by Annexin V-FITC/propidium iodide based FACS analysis. Type of experiment: functional, cell-based.
For experiment [2], the system named is MM1.S. Kind of experiment: Induction of apoptosis in human MM1S cells assessed as increase in necrotic cells at 2.5 uM after 24 hrs by Annexin V-FITC/propidium iodide based FACS analysis. In kind it is functional, cell-based. For orientation: In flow cytometry, cells or beads pass a laser one at a time.

With `Cc1cn([C@H]2C[C@H](OCCNCc3c[nH]cn3)[C@@H](C(=O)NCCCC[C@@H](NC(=O)[C@@H](C)NC(=O)[C@@H](CCCCN)NC(=O)[C@@H](C)NC(=O)[C@@H](CC(C)C)NC(=O)[C@@H](CCCCN)NC(=O)[C@@H](C)NC(=O)[C@@H](CC(C)C)NC(=O)[C@@H](CCCCN)NC(=O)CCCCCN)C(=O)O)O2)c(=O)[nH]c1=O`, the result with MM1.S [1] and in the experiment with MM1.S [2] was Active.
For `CNCCO[C@H]1C[C@H](n2cc(C)c(=O)[nH]c2=O)O[C@@H]1C(=O)NCCCC[C@@H](NC(=O)[C@@H](C)NC(=O)[C@@H](CCCCN)NC(=O)[C@@H](C)NC(=O)[C@@H](CC(C)C)NC(=O)[C@@H](CCCCN)NC(=O)[C@@H](C)NC(=O)[C@@H](CC(C)C)NC(=O)[C@@H](CCCCN)NC(=O)CCCCCN)C(=O)O`, the outcome in the experiment with MM1.S [1] and with MM1.S [2] was inactive.
Consider `Cc1cn([C@H]2C[C@H](OCCNCCCN)[C@@H](C(=O)NCCCC[C@@H](NC(=O)[C@@H](C)NC(=O)[C@@H](CCCCN)NC(=O)[C@@H](C)NC(=O)[C@@H](CC(C)C)NC(=O)[C@@H](CCCCN)NC(=O)[C@@H](C)NC(=O)[C@@H](CC(C)C)NC(=O)[C@@H](CCCCN)NC(=O)CCCCCN)C(=O)O)O2)c(=O)[nH]c1=O`, for which the outcome in the experiment on MM1.S [1] and in the experiment on MM1.S [2] was inactive.
Take `CCCCCCCCNCCO[C@H]1C[C@H](n2cc(C)c(=O)[nH]c2=O)O[C@@H]1C(=O)NCCCC[C@@H](NC(=O)[C@@H](C)NC(=O)[C@@H](CCCCN)NC(=O)[C@@H](C)NC(=O)[C@@H](CC(C)C)NC(=O)[C@@H](CCCCN)NC(=O)[C@@H](C)NC(=O)[C@@H](CC(C)C)NC(=O)[C@@H](CCCCN)NC(=O)CCCCCN)C(=O)O`: the outcome in the experiment with MM1.S [1] and in the experiment on MM1.S [2] was inactive.
For `Cc1cn([C@H]2C[C@H](OCCNCCCNCCCCNCCCN)[C@@H](C(=O)NCCCC[C@@H](NC(=O)[C@@H](C)NC(=O)[C@@H](CCCCN)NC(=O)[C@@H](C)NC(=O)[C@@H](CC(C)C)NC(=O)[C@@H](CCCCN)NC(=O)[C@@H](C)NC(=O)[C@@H](CC(C)C)NC(=O)[C@@H](CCCCN)NC(=O)CCCCCN)C(=O)O)O2)c(=O)[nH]c1=O`, the result with MM1.S [1] and in the experiment on MM1.S [2] was inactive.
